Patent publication US12448388B2, “PRMT5 inhibitors and uses thereof” (Gilead Sciences, Inc., priority 2023, dated 2025)
Values joined by “and” are separate entries in the source; they are usually repeats but may differ in a detail not shown here. Identical values can stand only once.

Assays:
Type in all cases: in vitro ADME
[1] = MDR1/BCRP assay: permeability in cPgp-KO-MDCK-WT cells; details: dog, pH 7.4
In short: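 Compounds at 1 μM were dosed apically or basolaterally on 5-day confluent cPgp-KO-MDCK monolayers, HBSS/HEPES/glucose pH 7.4 donor and receiver with 1% BSA, duplicate wells. Receiver samples at 2 h were analysed by LC-MS/MS to give A→B and B→A Papp plus % recovery; TEER confirmed integrity.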

[2] = Hepatocyte stability assay, human; details: human hepatocytes, 1 μM
Procedure: (§1) BioreclamationIVT (Baltimore, MD) provided the cryopreserved hepatocytes, hepatocyte thawing (HT) medium, and Krebs-Henseleit buffer (KHB) medium. The stock solution concentration was 1 M in DMSO and was then diluted further in acetonitrile/water (1:1 v/v). All other chemicals were purchased from Sigma-Aldrich (St. Louis, MO) or Thermo Fisher Scientific (Waltham, MA).
(§2) The quench solution used to stop reactions in the hepatocyte incubations was comprised of 100% (v/v) acetonitrile. Internal Standard/Quench (IS/Q) solution used to stop reactions with the positive control also contained 200 nM Labetalol.
(§3) Metabolic Stability in Cryopreserved Hepatocytes: Test compounds, or the positive control metabolic substrate, was incubated in suspensions of cryopreserved hepatocytes at a final concentration of 1 μM. Vials containing cryopreserved hepatocytes were removed from liquid nitrogen and immediately immersed in a 37° C. water bath. The vials were swirled gently until the contents had thawed. They were then immediately emptied into 48 mL of pre-warmed thawing medium in a 50 mL conical tube. Cells remaining in the vial were re-suspended with 1.0 mL of pre-warmed thawing medium and added to the conical tube. The tube was capped and then gently inverted several times to re-suspend the hepatocytes. The cell suspension was centrifuged at 500×g for 10 minutes at room temperature and the supernatant discarded. The cell pellet was loosened by gently swirling the centrifuge tube. Non-supplemented KHB medium was added to obtain the appropriate target cell density. The viabilities of all cell preparations were ≥85%, assessed by Trypan blue dye exclusion.
(§4) For incubations, aliquots of hepatocyte suspension (250 μL containing a cell concentration of 2×10^6 cells/mL) were added to 250 μL of 2 μM substrate (test compound or positive control) in supplemented KHB in duplicate wells in a 24-well plate. Final concentration in the incubations were 1×10^6 cells/mL and 1 μM substrate. A cell-free control incubation (KHB only) was also included. The incubations were carried out with gentle shaking in a 37° C. incubator under a humid atmosphere of 95% air/5% CO2 (v/v). Aliquots (100 μL) were removed after 0, 1, 3, and 6 hours and added to 200 μL quenching solution. The samples were then placed on a shaker for 10 min followed by centrifugation at 3000×g for 20 min. The supernatant was transferred to a new plate and diluted with 100 μL of water to reduce the organic content and then placed on a shaker for 10 mins. Samples were injected and analyzed with methods described below.
(§5) Liquid Chromatography: Quantification of positive control and test compound was performed by analyte/internal standard peak area ratios (PAR) measured on a Thermo Scientific™ Q Exactive™ Hybrid Quadrupole-Orbitrap Mass Spectrometer MS/MS with an electrospray interface operating in positive ion mode. The mass spectrometer was coupled to a Dionex Ultimate® 3000 HPLC system. Samples (10 μL aliquots) were injected with a Leap Technologies HTC PAL autosampler. For positive control, the column used was a Thermo Scientific™ Hypersil GOLD™ HPLC column ([…], 50×2.1 mm). Mobile phase A consisted of 95% (v/v) water, 5% (v/v) acetonitrile, and contained 0.1% (v/v) formic acid (FA). Mobile phase B consisted of 95% (v/v) acetonitrile, 5% (v/v) water, and contained 0.1% (v/v) FA. Elution was achieved, at a flow rate of 0.5 mL/min, by a series of linear gradients: initial condition was 5% B at 0 min, isocratic for 20 seconds; then linear gradient to 95% B over 90 seconds, followed by isocratic for 60 seconds at 95% B, and re-equilibrated to initial conditions over 70 seconds.
(§6) Metabolic stabilities of positive control and test compound were determined by measuring the rates of disappearance of the parent with time by determining the % of parent remaining at time t (Ct) {Obach 1997}.
(§7) Data (% of parent remaining) were plotted on a semi-log scale and fitted using an exponential fit: […]

[3] = Hepatocyte stability assay, rat; details: Sprague-Dawley Rat
Procedure: as §1, §2, §3, §4, §5, §6, §7

Papp A→B at 2 h, 1 µM [1] [×10⁻⁶ cm/s]	Human Predicted Hepatocyte CL [2] [L/h/kg]	Predicted Hepatocyte CL [3]	SMILES
10.5	0.18	1.1 L/h/kg	C[C@H]1CN(C(=O)c2cc3c(cc2F)nc(N)c2cncn23)[C@H]2c3ccc(C(F)(F)F)cc3C[C@H]2O1 (single isomer, unassigned) [Ff-81]
19.7	0.21		Nc1nc2cnc(C(=O)N3CC[C@H]4C[C@@H]3c3c(F)cc(C(F)(F)F)cc3O4)cc2n2cncc12 (single isomer, unassigned) [Ff-694]
16.6	0.17	1.12 L/h/kg	Nc1nc2cnc(C(=O)N3CCC[C@@H]4Oc5cc(C(F)(F)F)cc(F)c5[C@@H]43)cc2n2cncc12 (single isomer, unassigned) [Fg-53]
	0.5	1.66 L/h/kg and 1.24 L/h/kg	Nc1nc2cc(F)c(C(=O)N3CCC[C@@H]4Oc5cc(C(F)(F)F)ccc5[C@@H]43)cc2n2cncc12 [Ff-104, (4-amino-7-fluoroimidazo[1,5-a]quinoxalin-8-yl)((4aS,9bS)-7-(trifluoromethyl)-3,4,4a,9b-tetrahydrobenzofuro[3,2-b]pyridin-1(2H)-yl)methanone]
16.3	0.3	1.19 L/h/kg	Cc1ncc2c(N)nc3cnc(C(=O)N4CCC[C@@H]5Oc6cc(OC(F)(F)F)ccc6[C@@H]54)cc3n12 [Ff-340, (4-amino-1-methylimidazo[1,5-a]pyrido[3,4-e]pyrazin-8-yl)((4aS,9bS)-7-(trifluoromethoxy)-3,4,4a,9b-tetrahydrobenzofuro[3,2-b]pyridin-1(2H)-yl)methanone]
10.9	0.34		Nc1nc2cnc(C(=O)N3CC4(CC4)C[C@@H]4Oc5cc(C(F)(F)F)ccc5[C@@H]43)cc2n2cncc12 [Ff-648, (4-aminoimidazo[1,5-a]pyrido[3,4-e]pyrazin-8-yl)((4aS,9bS)-7-(trifluoromethyl)-4a,9b-dihydro-2H-spiro[benzofuro[3,2-b]pyridine-3,1′-cyclopropan]-1(4H)-yl)methanone]

Further lines, the compound ahead of its results:

SMILES	Papp A→B at 2 h, 1 µM [1] [×10⁻⁶ cm/s]	Human Predicted Hepatocyte CL [2] [L/h/kg]	Predicted Hepatocyte CL [3]
Nc1nc2cc(F)c(C(=O)N3CCO[C@@H]4Cc5cc(C(F)(F)F)ccc5[C@@H]43)cc2n2cncc12 (single isomer, unassigned) [Ff-82]	8.8	0.26	
C[C@H]1CN(C(=O)c2cc3c(cc2F)nc(N)c2cncn23)[C@H]2c3cc(F)c(C(F)F)cc3C[C@H]2O1 (single isomer, unassigned) [Ff-173]	14.3	0.18	
C[C@@H]1CN(C(=O)c2cc3c(cc2F)nc(N)c2cncn23)[C@H]2c3ccc(OC(F)(F)F)cc3C[C@H]2O1 (single isomer, unassigned) [Ff-183]	10.3	0.18	
C[C@@H]1CN(C(=O)c2cc3c(cc2F)nc(N)c2cncn23)[C@H]2c3cc(F)c(OC(F)(F)F)cc3C[C@H]2O1 (single isomer, unassigned) [Ff-197]	16	0.25	
Nc1nc2cnc(C(=O)N3CCC[C@@H]4Oc5cc(OC(F)(F)F)cc(F)c5[C@@H]43)cc2n2cncc12 (single isomer, unassigned) [Fg-55]	9.5	0.24	0.93 L/h/kg
Nc1nc2cnc(C(=O)N3CCC[C@@H]4Oc5c(ccc(C(F)(F)F)c5F)[C@@H]43)cc2n2cncc12 [Ff-109, (4-aminoimidazo[1,5-a]pyrido[3,4-e]pyrazin-8-yl)((4aS,9bS)-6-fluoro-7-(trifluoromethyl)-3,4,4a,9b-tetrahydrobenzofuro[3,2-b]pyridin-1(2H)-yl)methanone]	12.2	0.14	
Nc1nc2cnc(C(=O)N3CCC[C@@H]4Oc5cc(C(F)(F)F)ccc5[C@@H]43)cc2n2cncc12 [Ff-110, (4-aminoimidazo[1,5-a]pyrido[3,4-e]pyrazin-8-yl)((4aS,9bS)-7-(trifluoromethyl)-3,4,4a,9b-tetrahydrobenzofuro[3,2-b]pyridin-1(2H)-yl)methanone]	12.1	0.22	
Nc1nc2ccc(C(=O)N3CCC[C@@H]4Oc5cc(C(F)(F)F)ccc5[C@@H]43)cc2n2cncc12 [Ff-111, (4-aminoimidazo[1,5-a]quinoxalin-8-yl)((4aS,9bS)-7-(trifluoromethyl)-3,4,4a,9b-tetrahydrobenzofuro[3,2-b]pyridin-1(2H)-yl)methanone]	15.3	0.35	1.67 L/h/kg
Nc1nc2cnc(C(=O)N3CCC[C@@H]4Oc5cc(OC(F)(F)F)ccc5[C@@H]43)cc2n2cncc12 [Ff-341, (4-aminoimidazo[1,5-a]pyrido[3,4-e]pyrazin-8-yl)((4aS,9bS)-7-(trifluoromethoxy)-3,4,4a,9b-tetrahydrobenzofuro[3,2-b]pyridin-1(2H)-yl)methanone]	10.3	0.22	0.96 L/h/kg
Nc1nc2cnc(C(=O)N3CC[C@H]4C[C@@H]3c3ccc(C(F)(F)F)cc3O4)cc2n2cncc12 [Ff-367, (4-aminoimidazo[1,5-a]pyrido[3,4-e]pyrazin-8-yl)((2S,6R)-9-(trifluoromethyl)-3,4-dihydro-2H-2,6-methanobenzo[b][1,5]oxazocin-5(6H)-yl)methanone]	13.7	0.16	
Cc1ncn2c1c(N)nc1cnc(C(=O)N3CCC[C@@H]4Oc5cc(C(F)(F)F)ccc5[C@@H]43)cc12 [Ff-499, (4-amino-3-methylimidazo[1,5-a]pyrido[3,4-e]pyrazin-8-yl)((4aS,9bS)-7-(trifluoromethyl)-3,4,4a,9b-tetrahydrobenzofuro[3,2-b]pyridin-1(2H)-yl)methanone]	17.8	0.25	2.23 L/h/kg
Nc1nc2cnc(C(=O)N3CC[C@H]4C[C@@H]3c3ccc(C(F)(F)F)c(F)c3O4)cc2n2cncc12 [Ff-684, (4-aminoimidazo[1,5-a]pyrido[3,4-e]pyrazin-8-yl)((2S,6R)-10-fluoro-9-(trifluoromethyl)-3,4-dihydro-2H-2,6-methanobenzo[b][1,5]oxazocin-5(6H)-yl)methanone]	10.7	0.16	
Nc1nc2cnc(C(=O)N3CC[C@H]4C[C@@H]3c3ccc(OC(F)(F)F)cc3O4)cc2n2cncc12 [Ff-685, (4-aminoimidazo[1,5-a]pyrido[3,4-e]pyrazin-8-yl)((2S,6R)-9-(trifluoromethoxy)-3,4-dihydro-2H-2,6-methanobenzo[b][1,5]oxazocin-5(6H)-yl)methanone]	11.2	0.29	
[2H]C1([2H])CC[C@@H]2Oc3cc(C(F)(F)F)ccc3[C@@H]2N1C(=O)c1cc2c(cn1)nc(N)c1cncn12 [Fg-60, (4-aminoimidazo[1,5-a]pyrido[3,4-e]pyrazin-8-yl)((4aS,9bS)-7-(trifluoromethyl)-3,4,4a,9b-tetrahydrobenzofuro[3,2-b]pyridin-1(2H)-yl-2,2-d2)methanone]	7	0.21	
